Data as given in publication PMC8331180, “Development of antibacterial compounds that constrain evolutionary pathways to resistance” (eLife, 2021).
Changes are numbered by the printed parent chain. Where “and” joins values, the source holds several entries; their conditions need not be identical. Equal entries are not always repeated. Where two headings read alike, the source gives them in different places.

Assays:
[1] = molecular target: T1, E. coli WT DHFR (Escherichia coli, UniProt P0ABQ4); test: biochemical; conditions: for Ki: Ki value, E. coli WT DHFR, Ki converted from IC50; for inhibition at 200 µM: read-out: inhibition of DHFR catalytic activity
T1 construct: made in house
T1 sequence (P0ABQ4 1-159): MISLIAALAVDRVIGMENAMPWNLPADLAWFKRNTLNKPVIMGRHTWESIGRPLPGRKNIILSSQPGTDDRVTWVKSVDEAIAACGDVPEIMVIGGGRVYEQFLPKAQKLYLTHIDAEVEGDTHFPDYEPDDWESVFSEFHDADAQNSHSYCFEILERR

[2] = molecular target: T2, E. coli DHFR P21L mutant (Escherichia coli, UniProt P0ABQ4, P21L); test: biochemical; conditions: for Ki: Ki value, E. coli P21L DHFR, Ki converted from IC50; for inhibition at 200 µM: read-out: inhibition of DHFR catalytic activity
T2 construct: made in house
T2 sequence (P0ABQ4 1-159 P21L): T1 sequence (P0ABQ4 1-159) with P21L

[3] = molecular target: T3, E. coli DHFR A26T mutant (Escherichia coli, UniProt P0ABQ4, A26T); test: biochemical; conditions: for Ki: Ki value, E. coli A26T DHFR, Ki converted from IC50; for inhibition at 200 µM: read-out: inhibition of DHFR catalytic activity
T3 construct: made in house
T3 sequence (P0ABQ4 1-159 A26T): T1 sequence (P0ABQ4 1-159) with A26T

[4] = molecular target: T4, E. coli DHFR L28R mutant (Escherichia coli, UniProt P0ABQ4, L28R); test: biochemical; conditions: for Ki: Ki value, E. coli L28R DHFR, Ki converted from IC50; for inhibition at 200 µM: read-out: inhibition of DHFR catalytic activity
T4 construct: made in house
T4 sequence (P0ABQ4 1-159 L28R): T1 sequence (P0ABQ4 1-159) with L28R

[5] = molecular target: T5, E. coli DHFR P21L-A26T mutant (Escherichia coli, UniProt P0ABQ4, A26T/P21L); test: biochemical
T5 construct: made in house
T5 sequence (P0ABQ4 1-159 P21L/A26T): T1 sequence (P0ABQ4 1-159) with P21L, A26T

[6] = molecular target: T6, E. coli DHFR P21L-L28R mutant (Escherichia coli, UniProt P0ABQ4, L28R/P21L); test: biochemical
T6 construct: made in house
T6 sequence (P0ABQ4 1-159 P21L/L28R): T1 sequence (P0ABQ4 1-159) with P21L, L28R

[7] = molecular target: T7, E. coli DHFR A26T-L28R mutant (Escherichia coli, UniProt P0ABQ4, A26T/L28R); test: biochemical
T7 construct: made in house
T7 sequence (P0ABQ4 1-159 A26T/L28R): T1 sequence (P0ABQ4 1-159) with A26T, L28R

[8] = molecular target: T8, Human DHFR (Homo sapiens, UniProt P00374); test: biochemical; format: biochemical; conditions: for Ki: Human WT DHFR, NT means no inhibition was detected at the maximal compound concentration tested
T8 construct: purchased Sigma Aldrich

[9] = test system: E. coli strain with chromosomal P21L DHFR; test: microbe, parasite or virus in culture; format: cell-based; conditions: Escherichia coli, read-out: Bacterial growth inhibition IC50
[10] = test system: E. coli strain with chromosomal A26T DHFR; test: microbe, parasite or virus in culture; format: cell-based; conditions: Escherichia coli, read-out: Bacterial growth inhibition IC50
[11] = test system: E. coli strain with chromosomal L28R DHFR; test: microbe, parasite or virus in culture; format: cell-based; conditions: for IC50: Escherichia coli, read-out: Bacterial growth inhibition IC50
[12] = test system: WT E. coli strain; test: microbe, parasite or virus in culture; conditions: Escherichia coli
[13] = test system: CD15-3-evolved E. coli strains; test: microbe, parasite or virus in culture; format: cell-based; conditions: Escherichia coli
[14] = test system: E. coli BW27783; format: cell-based
[15] = test system: WT E. coli strain; conditions: read-out: Bacterial growth inhibition IC50; WT (naive) E. coli strain, M9 medium, 37°C
[16] = test system: WT and evolved E. coli cells; test: DIC imaging of cell length; conditions: 42°C
[17] = single fixed concentration of 200 µM, WT DHFR
[18] = single fixed concentration of 200 µM, P21L DHFR
[19] = single fixed concentration of 200 µM, A26T DHFR
[20] = single fixed concentration of 200 µM, L28R DHFR
[21] = read-out: Bacterial growth inhibition IC50, WT (naive) E. coli strain, M9 medium, 37°C

Row | SMILES | Ki [1] | Ki [2] | Ki [3] | Ki [4] | IC50 [9] | IC50 [10] | IC50 [11] | IC50 [12, 21] | also measured
1 | CCOc1cc(C=C2C(=O)NC(=O)NC2=O)ccc1OCC(=O)O [CD17] | 8.2 µM and 8.18 µM | 3.7 µM | 6.7 µM and 6.73 µM | 3.7 µM and 3.65 µM | 5050 µM | 1920 µM | 932 µM | 1770 µM | inhibition at 200 µM [1, 17]: > 30%; inhibition at 200 µM [2, 18]: > 30%; inhibition at 200 µM [3, 19]: > 30%; inhibition at 200 µM [4, 20]: > 30%; Ki [5]: 9.2 µM; Ki [6]: 1.37 µM; Ki [7]: 2.04 µM; Ki [8]: 0.74 µM
2 | CSc1nc2nc(N)nc(N)c2s1 [CD20] |  |  |  |  |  |  |  |  | inhibition of DHFR catalytic activity [1, 17]: showed inhibition; inhibition of DHFR catalytic activity [2, 18]: showed inhibition; inhibition of DHFR catalytic activity [3, 19]: showed inhibition; inhibition of DHFR catalytic activity [4, 20]: not
3 | COc1cc([C@H]2CC(=O)Nc3nc(N)[nH]c(=O)c32)ccc1O [CD08] | 6.9 ± 0.6 µM | 3.2 ± 0.4 µM | 4.9 ± 1.4 µM | 3.1 ± 0.6 µM |  |  |  |  | inhibition at 200 µM [1, 17]: > 30%; inhibition at 200 µM [2, 18]: > 30%; inhibition at 200 µM [3, 19]: > 30%; inhibition at 200 µM [4, 20]: > 30%
4 | O=C(O)COc1c(Cl)cc(C=C2C(=O)NC(=O)NC2=O)cc1Cl [CD17-4] |  |  |  |  |  |  | 1860 µM |  | 
5 | COc1cc(Cc2cnc(N)nc2N)cc(OC)c1OC [TMP, trimethoprim, reference compound] |  |  |  |  |  |  |  |  | IC50 [12]: 0.4 µg/mL; IC50 ([12]; read-out: Bacterial growth inhibition IC50): 1.3 µM
6 | Cn1c(=O)[nH]c(O)c(C2=NN[C@H](c3ccc4c(c3)OCO4)C2)c1=O [CD15-4] |  |  |  |  | 92 µM | 123 µM | 67 µM | 302 µM | 
7 | COc1ccc([C@@H]2CC(c3c(O)[nH]c(=O)n(C)c3=O)=NN2)cc1OC [CD15] | 3.35 µM | 1.42 µM | 2.43 µM | 1.04 µM | 176 µM | 197 µM | 159 µM | 170 µM | inhibition at 200 µM [1, 17]: > 30%; inhibition at 200 µM [2, 18]: > 30%; inhibition at 200 µM [3, 19]: > 30%; inhibition at 200 µM [4, 20]: > 30%; Ki [5]: 3.26 µM; Ki [6]: 0.56 µM; Ki [7]: 0.61 µM; Ki [8]: 0.38 µM
8 | COc1cc([C@@H]2CC(c3c(O)[nH]c(=O)n(C)c3=O)=NN2)cc(OC)c1OC [CD15-6] |  |  |  |  | 159 µM | 172 µM | 167 µM | 175 µM | 
9 | COc1ccc([C@@H]2CC(c3c(O)[nH]c(=O)n(C)c3=O)=NN2)cc1O [CD15-2] |  |  |  |  | 125 µM | 119 µM | 88 µM | 129 µM | 
10 | C[C@H](Oc1ccc(C=C2C(=O)NC(=O)NC2=O)cc1)C(=O)O [CD17-3] |  |  |  |  | 2840 µM | 2150 µM | 907 µM | 2950 µM | 
11 | Cc1cc(NS(=O)(=O)c2ccc(N)cc2)no1 [Sulfamethoxazole, reference compound] |  |  |  |  |  |  |  |  | IC50 ([13]; CD15-3-evolved cells, cross resistance test, growth rate): 6.7 µM; IC50 [12]: 2.9 µM
12 | Cn1c(=O)[nH]c(O)c(C2=NN[C@H](c3cccc4ccccc34)C2)c1=O [CD15-3] | 5.52 µM | 2.51 µM | 3.48 µM | 0.98 µM | 57 µM | 73 µM | 48 µM | 71.8 µM | inhibitory activity against human DHFR ([8]; CD15-3 17.56–200 µM, 25°C): no inhibitory activity; efficacy relative to TMP on L28R E. coli variant strain ([11]; growth inhibition IC50, better than TMP): about 2.4 fold; IC50 ([13]; CD15-3-evolved strain Evolved 1, M9 media): 132 µM; IC50 ([13]; CD15-3-evolved strain Evolved 2, M9 media): 166 µM; IC50 ([13]; CD15-3-evolved strain Evolved 3, M9 media): 170 µM; IC50 ([13]; range over strains evolved under CD15-3, read-out: IC50 of evolved strains): 132 to 170 µM; effect of folA mix supplement on drug-induced growth inhibition ([14]; M9 media with folA mix): partially rescued; effect of inactive D27F DHFR overexpression on drug-induced growth inhibition ([14]; pBAD D27F, 0.005% arabinose): no growth recovery; effect of WT DHFR overexpression on drug-induced growth inhibition ([14]; pBAD folA, 0.005% arabinose): partially rescued growth; IC50 [15]: 72 µM; median cell length ([16]; WT cells treated at IC50 concentration, 4 hours): 2.34 µm; median cell length ([16]; evolved cells treated at IC50 concentration): 1.26 µm; IC50 ([12]; read-out: IC50 against WT and TMP-resistant strains): 50 to 75 µM
